Reference: ChEMBL document CHEMBL3885861, “Open TG-GATES”

Species: Rattus norvegicus
Test: Open TG-GATES - Regimen: Daily Repeat
Assay type: toxicity, organism-based, Sprague-Dawley
Parameters: regimen Daily Repeat, gender Male, age 6 weeks
Settings: in vivo, po, 0 mg/kg, route gavage, dose level Control; for APTT / Bas / Eos / Fbg / Hb / Ht / Lym / MCH / MCHC / MCV / Mono / Neu / PT / Plat / RBC / Ret / WBC: tissue Blood; for KIDNEY_L / KIDNEY_R / KIDNEY_TOTAL: tissue Kidney; for LIVER: tissue Liver; for A/G / ALP / ALT / AST / BUN / CRE / Ca / Cl / DBIL / GLC / IP / K / LDH / Na / PL / RALB / TBIL / TC / TG / TP / gamma-GTP: tissue Plasma

`CCCc1cc(=O)[nH]c(=S)[nH]1` [PROPYLTHIOURACIL] showed a TERMINAL_BW (72 h, time 3 day) of 207.9 g, an APTT (72 h, time 3 day) of 16.3 s and a Bas (72 h, time 3 day) of 0%. It also gave an Eos (72 h, time 3 day) of 0.8%, a Fbg (72 h, time 3 day) of 235 mg/dL and a Hb (72 h, time 3 day) of 13.5 g/dL. It also gave a Ht (72 h, time 3 day) of 40.7%, a Lym (72 h, time 3 day) of 73.4% and an MCH (72 h, time 3 day) of 21.7 pg. The MCHC (72 h, time 3 day) was 33.2%, the MCV (72 h, time 3 day) was 65.5 fL and the Mono (72 h, time 3 day) was 8.4%. It also gave a Neu (72 h, time 3 day) of 17.4%, a PT (72 h, time 3 day) of 12 s and a Plat (72 h, time 3 day) of 113.1 x10_4/uL. It also gave an RBC (72 h, time 3 day) of 622 x10_4/ul, a Ret (72 h, time 3 day) of 7.6% and a WBC (72 h, time 3 day) of 141.8 x10_2/uL. It also gave a KIDNEY_L (72 h, time 3 day) of 0.9 g, a KIDNEY_R (72 h, time 3 day) of 1 g and a KIDNEY_TOTAL (72 h, time 3 day) of 1.9 g. It also gave an LIVER (72 h, time 3 day) of 10.1 g, an A/G (72 h, time 3 day) of 1.9 and an ALP (72 h, time 3 day) of 904.6 IU/L. The ALT (72 h, time 3 day) was 38.6 IU/L, the AST (72 h, time 3 day) was 65.4 IU/L and the BUN (72 h, time 3 day) was 20.6 mg/dL. For the same molecule, the CRE (72 h, time 3 day) was 0.5 mg/dL, the Ca (72 h, time 3 day) was 11.5 mg/dL and the Cl (72 h, time 3 day) was 103.4 meq/L. It also gave a DBIL (72 h, time 3 day) of 0.022 mg/dL, a GLC (72 h, time 3 day) of 192.8 mg/dL and an IP (72 h, time 3 day) of 8.7 mg/dL. For the same molecule, the K (72 h, time 3 day) was 5 meq/L, the LDH (72 h, time 3 day) was 90.6 IU/L and the Na (72 h, time 3 day) was 137.4 meq/L. For the same molecule, the PL (72 h, time 3 day) was 160.8 mg/dL, the RALB (72 h, time 3 day) was 3.9 g/dL and the TBIL (72 h, time 3 day) was 0.3 mg/dL. For the same molecule, the TC (72 h, time 3 day) was 85.6 mg/dL, the TG (72 h, time 3 day) was 98.8 mg/dL and the TP (72 h, time 3 day) was 6 g/dL. The gamma-GTP (72 h, time 3 day) was 2 IU/L, the TERMINAL_BW ([…], time 7 day) was 242.6 g and the TERMINAL_BW ([…], time 14 day) was 275 g. For the same molecule, the TERMINAL_BW ([…], time 28 day) was 364.4 g, the APTT ([…], time 7 day) was 16 s and the Bas ([…], time 7 day) was 0%. For the same molecule, the Eos ([…], time 7 day) was 0.8%, the Fbg ([…], time 7 day) was 232.4 mg/dL and the Hb ([…], time 7 day) was 13.8 g/dL. For the same molecule, the Ht ([…], time 7 day) was 41%, the Lym ([…], time 7 day) was 77.8% and the MCH ([…], time 7 day) was 21.4 pg. The MCHC ([…], time 7 day) was 33.6%, the MCV ([…], time 7 day) was 63.6 fL and the Mono ([…], time 7 day) was 5.6%. It also gave a Neu ([…], time 7 day) of 15.8%, a PT ([…], time 7 day) of 12 s and a Plat ([…], time 7 day) of 105.3 x10_4/uL. The RBC ([…], time 7 day) was 643.8 x10_4/ul, the Ret ([…], time 7 day) was 6.7% and the WBC ([…], time 7 day) was 127.9 x10_2/uL. It also gave an APTT ([…], time 14 day) of 16.2 s, a Bas ([…], time 14 day) of 0% and an Eos ([…], time 14 day) of 0.2%. The Fbg ([…], time 14 day) was 220.4 mg/dL, the Hb ([…], time 14 day) was 14.7 g/dL and the Ht ([…], time 14 day) was 43.9%. It also gave a Lym ([…], time 14 day) of 80.8%, an MCH ([…], time 14 day) of 21 pg and an MCHC ([…], time 14 day) of 33.4%. It also gave an MCV ([…], time 14 day) of 63 fL, a Mono ([…], time 14 day) of 4% and a Neu ([…], time 14 day) of 15%. For the same molecule, the PT ([…], time 14 day) was 12.1 s, the Plat ([…], time 14 day) was 105.2 x10_4/uL and the RBC ([…], time 14 day) was 697.6 x10_4/ul. For the same molecule, the Ret ([…], time 14 day) was 5%, the WBC ([…], time 14 day) was 125.5 x10_2/uL and the APTT ([…], time 28 day) was 16.6 s. It also gave a Bas ([…], time 28 day) of 0%, an Eos ([…], time 28 day) of 0.6% and a Fbg ([…], time 28 day) of 223.8 mg/dL. The Hb ([…], time 28 day) was 15.3 g/dL, the Ht ([…], time 28 day) was 45.9% and the Lym ([…], time 28 day) was 86.8%. It also gave an MCH ([…], time 28 day) of 19.5 pg, an MCHC ([…], time 28 day) of 33.4% and an MCV ([…], time 28 day) of 58.4 fL. The Mono ([…], time 28 day) was 3.8%, the Neu ([…], time 28 day) was 8.8% and the PT ([…], time 28 day) was 12.1 s. The Plat ([…], time 28 day) was 105.4 x10_4/uL, the RBC ([…], time 28 day) was 786.4 x10_4/ul and the Ret ([…], time 28 day) was 2.8%. It also gave a WBC ([…], time 28 day) of 95.2 x10_2/uL, a KIDNEY_L ([…], time 7 day) of 1.1 g and a KIDNEY_R ([…], time 7 day) of 1.1 g. For the same molecule, the KIDNEY_TOTAL ([…], time 7 day) was 2.1 g, the KIDNEY_L ([…], time 14 day) was 1.1 g and the KIDNEY_R ([…], time 14 day) was 1.1 g. The KIDNEY_TOTAL ([…], time 14 day) was 2.2 g, the KIDNEY_L ([…], time 28 day) was 1.3 g and the KIDNEY_R ([…], time 28 day) was 1.3 g. For the same molecule, the KIDNEY_TOTAL ([…], time 28 day) was 2.6 g, the LIVER ([…], time 7 day) was 11.7 g and the LIVER ([…], time 14 day) was 12.2 g. The LIVER ([…], time 28 day) was 15.2 g, the A/G ([…], time 7 day) was 1.8 and the ALP ([…], time 7 day) was 1082.6 IU/L. The ALT ([…], time 7 day) was 34.2 IU/L, the AST ([…], time 7 day) was 67.4 IU/L and the BUN ([…], time 7 day) was 20.8 mg/dL. For the same molecule, the CRE ([…], time 7 day) was 0.5 mg/dL, the Ca ([…], time 7 day) was 11.5 mg/dL and the Cl ([…], time 7 day) was 106.2 meq/L. It also gave a DBIL ([…], time 7 day) of 0.016 mg/dL, a GLC ([…], time 7 day) of 180 mg/dL and an IP ([…], time 7 day) of 8 mg/dL. The K ([…], time 7 day) was 5.2 meq/L, the LDH ([…], time 7 day) was 95.6 IU/L and the Na ([…], time 7 day) was 139 meq/L. For the same molecule, the PL ([…], time 7 day) was 158.4 mg/dL, the RALB ([…], time 7 day) was 3.9 g/dL and the TBIL ([…], time 7 day) was 0.4 mg/dL. It also gave a TC ([…], time 7 day) of 77 mg/dL, a TG ([…], time 7 day) of 127 mg/dL and a TP ([…], time 7 day) of 6.1 g/dL. The gamma-GTP ([…], time 7 day) was 1.8 IU/L, the A/G ([…], time 14 day) was 1.8 and the ALP ([…], time 14 day) was 719.8 IU/L. The ALT ([…], time 14 day) was 30 IU/L, the AST ([…], time 14 day) was 59.4 IU/L and the BUN ([…], time 14 day) was 18.8 mg/dL. The CRE ([…], time 14 day) was 0.7 mg/dL, the Ca ([…], time 14 day) was 11 mg/dL and the Cl ([…], time 14 day) was 107.4 meq/L. The DBIL ([…], time 14 day) was 0.006 mg/dL, the GLC ([…], time 14 day) was 183.6 mg/dL and the IP ([…], time 14 day) was 8.1 mg/dL. The K ([…], time 14 day) was 4.4 meq/L, the LDH ([…], time 14 day) was 87.4 IU/L and the Na ([…], time 14 day) was 140.8 meq/L. For the same molecule, the PL ([…], time 14 day) was 150.4 mg/dL, the RALB ([…], time 14 day) was 3.9 g/dL and the TBIL ([…], time 14 day) was 0.3 mg/dL. For the same molecule, the TC ([…], time 14 day) was 69.4 mg/dL, the TG ([…], time 14 day) was 111.2 mg/dL and the TP ([…], time 14 day) was 6.1 g/dL. For the same molecule, the gamma-GTP ([…], time 14 day) was 0.8 IU/L, the A/G ([…], time 28 day) was 1.8 and the ALP ([…], time 28 day) was 612.6 IU/L. For the same molecule, the ALT ([…], time 28 day) was 27 IU/L, the AST ([…], time 28 day) was 59.8 IU/L and the BUN ([…], time 28 day) was 20.6 mg/dL. The CRE ([…], time 28 day) was 0.7 mg/dL, the Ca ([…], time 28 day) was 10.8 mg/dL and the Cl ([…], time 28 day) was 106.8 meq/L. The DBIL ([…], time 28 day) was 0.012 mg/dL, the GLC ([…], time 28 day) was 169.4 mg/dL and the IP ([…], time 28 day) was 6.7 mg/dL. It also gave a K ([…], time 28 day) of 4.5 meq/L, an LDH ([…], time 28 day) of 84 IU/L and a Na ([…], time 28 day) of 139.8 meq/L. It also gave a PL ([…], time 28 day) of 161.6 mg/dL, an RALB ([…], time 28 day) of 4 g/dL and a TBIL ([…], time 28 day) of 0.2 mg/dL. It also gave a TC ([…], time 28 day) of 76.6 mg/dL, a TG ([…], time 28 day) of 153.8 mg/dL and a TP ([…], time 28 day) of 6.3 g/dL. It also gave a gamma-GTP ([…], time 28 day) of 1.6 IU/L.
